Laboratory results published in patent US20020173491A1, “DAPD combination therapy with inosine monophosphate dehydrogenase inhibitor” (priority 2000, published 2002).
Like-named read-outs stand apart in the source and are kept apart here.

How the values were obtained:
xxLAI strain of HIV-1 [1] = assay: microbe, parasite or virus in culture; assay type: cell-based; settings: for effect of addition of 0.25 μM MPA on anti-HIV activity in PBMCs / effect of addition of 20 μM RBV on anti-HIV activity in PBMCs / Fold difference in EC50, 0.1 μM MPA / Fold difference in EC50, 0.25 μM MPA / Fold difference in EC50, 5 μM RBV / Fold difference in EC50, 10 μM RBV / Fold difference in EC50, 20 μM RBV: PBMC; for effect of addition of 0.25 μM MPA on anti-HIV activity in PBMCs / effect of addition of 20 μM RBV on anti-HIV activity in PBMCs: all the concentrations tested; for Fold difference in EC50, 0.1 μM MPA: control vs with 0.1 μM MPA; for Fold difference in EC50, 0.25 μM MPA: control vs with 0.25 μM MPA; for Fold difference in EC50, 5 μM RBV: control vs with 5 μM RBV; for Fold difference in EC50, 10 μM RBV: control vs with 10 μM RBV; for Fold difference in EC50, 20 μM RBV: control vs with 20 μM RBV
Method: In this assay, cell supernatants were incubated on microelisa wells coated with antibodies to HIV-1 p24 core antigen. Subsequently, anti-HIV-1 conjugate labeled with horseradish peroxidase was added. The labeled antibody bound to the solid phase antibody/antigen complexes previously formed. Addition of the tetramethylbenzidine substrate results in blue color formation. The color turned yellow when the reaction is stopped. The plates were then analyzed on a plate reader set at 490 nm. The absorbance is a direct measurement of the amount of HIV-1 produced in each well and a decrease in color indicates decreased viral production. […] PBMC were obtained from HIV-1 negative donors by banding on Ficoll gradients, stimulated with phytohemaglutinin (PHAP) for 48 hours prior to infection with HIV-1, and infected with virus for 4 hours at 37° C. at a MOI of 0.001. […] Plates were incubated for 3 days at 37° C. The concentration of virus in each well was determined using the NEN p24 assay. Using the absorption values of the cell controls as 100% protection and drug free, virus infected cells as 0% protection, a dose response curve is generated by plotting percent protection on the Y axis and drug concentration on the X axis. From this curve, EC50 values were determined.
Compound dilutions and assay conditions were as described above.
MPA was also tested for activity against the xxLAI strain of HIV-1 in PBMCs using a p24 based Elisa assay. In this assay, cell supernatants are incubated on microelisa wells coated with antibodies to HIV-1 p24 core antigen. Subsequently, anti-HIV-1 conjugate labeled with horse radish peroxidase is added. The labeled antibody binds to the solid phase antibody/antigen complexes previously formed. Addition of the tetramethylbenzidine substrate results in blue color formation. The color turns yellow when the reaction is stopped. The plates are then analyzed on a plate reader set at 490 nm. The absorbance is a direct measurement of the amount of HIV-1 produced in each well and a decrease in color indicates decreased viral production. Dilutions of MPA were made in cell culture media in a 96 well plate, the highest concentration of MPA tested was 1 μM. PBMC were obtained from HIV-1 negative donors by banding on Ficoll gradients, stimulated with phytohemaglutinin (PHAP) for 48 hours prior to infection with HIV-1, and infected with virus for 4 hours at 37° C. at a MOI of 0.001. Infected cells were seeded into 96 well plates containing 4-fold serial dilutions of MPA. Plates were incubated for 3 days at 37° C. The concentration of virus in each well was determined using the NEN p24 assay. Using the absorption values of the cell controls as 100% protection and drug free, virus infected cells as 0% protection, a dose response curve is generated by plotting % protection on the Y axis and drug concentration on the X axis. From this curve EC50 values were determined.
Compound dilutions and assay conditions were as described above. The concentrations of MPA used were 1, 0.5, 0.25, 0.1, and 0.01 μM.

xxLAI strain of HIV-1 [2] = assay: microbe, parasite or virus in culture; assay type: cell-based; settings: for Fold difference in EC50, 0.1 μM MPA: control vs with 0.1 μM MPA; for Fold difference in EC50, 0.25 μM MPA: control vs with 0.25 μM MPA (fold decrease); for Fold difference in EC50, 5 μM RBV: control vs with 5 μM RBV; for Fold difference in EC50, 10 μM RBV: control vs with 10 μM RBV
Method: Triplicate samples of compound were tested. MT2 cells were infected with xxLAI at a multiplicity of infection (MOI) of 0.03 for 3 hours at 37° C. in 5% CO2. The infected cells were plated at 3.0×10^4/well into a 96 well plated containing drug dilutions and incubated for 5 days at 37° C. in CO2. […] This method has been modified into a susceptibility assay and has been used in a variety of in vitro antiviral tests and is readily adaptable to any system with a lytic virus (Weislow, O. S., et. al. 1989). Using the absorption values of the cell controls as 100% protection and no drug, virus infected cells as 0% protection, a dose response curve is generated by plotting % protection on the Y axis and drug concentration on the X axis. From this curve EC50 values were determined.
Assays were performed in the MT2 cell line as described above in the XXT sensitivity assay section.
MPA was tested for activity against the xxLAI strain of HIV-1 in the laboratory adapted cell line MT2. Dilutions of MPA were made in cell culture media in a 96 well plate; the highest concentration tested was 1 μM. Triplicate samples of compound were tested. MT2 cells were infected with xxLAI at a multiplicity of infection (MOI) of 0.03 for 3 hours at 37° C. in 5% CO2. The infected cells were plated at 3.0×10^4/well into a 96 well plated containing drug dilutions and incubated for 5 days at 37° C. in CO2. The antiviral activity of MPA was determined using the XTT assay described above. This method has been modified into a susceptibility assay and has been used in a variety of in vitro antiviral tests and is readily adaptable to any system with a lytic virus (Weislow, O. S., et. al. 1989). Using the absorption values of the cell controls as 100% protection and no drug, virus infected cells as 0% protection, a dose response curve is generated by plotting % protection on the Y axis and drug concentration on the X axis. From this curve EC50 values were determined.
The concentrations of MPA used were 1, 0.5, 0.25, 0.1, and 0.01 μM. Assays were performed in the MT2 cell line as described in section 3.1.

[3] = Human immunodeficiency virus 1, PBMC, read-out: Mean EC50, Control, PMBCs, no MPA
[4] = Human immunodeficiency virus 1, PBMC, read-out: Mean EC50, Control, PMBCs, no RBV
[5] = read-out: Mean EC50, 0.01 μM MPA, PMBCs, with 0.01 μM MPA
[6] = read-out: Mean EC50, 0.1 μM MPA, PMBCs, with 0.1 μM MPA
[7] = read-out: Mean EC50, 0.25 μM MPA, PMBCs, with 0.25 μM MPA
[8] = read-out: Mean EC50, 1 μM RBV, PMBCs, with 1 μM RBV
[9] = read-out: Mean EC50, 5 μM RBV, PMBCs, with 5 μM RBV
[10] = read-out: Mean EC50, 10 μM RBV, PMBCs, with 10 μM RBV
[11] = read-out: Mean EC50, 20 μM RBV, PMBCs, with 20 μM RBV
[12] = Human immunodeficiency virus 1, MT2, read-out: Mean EC50, Control, MT2 cells, no MPA
[13] = Human immunodeficiency virus 1, MT2, read-out: Mean EC50, Control, MT2 cells, no RBV
[14] = read-out: Mean EC50, 0.25 μM MPA, MT2 cells, with 0.25 μM MPA
[15] = read-out: Mean EC50, 5 μM RBV, MT2 cells, with 5 μM RBV
[16] = read-out: Mean EC50, 10 μM RBV, MT2 cells, with 10 μM RBV
[17] = read-out: Mean EC50, 20 μM RBV, MT2 cells, with 20 μM RBV
[18] = read-out: Mean EC50, 0.01 μM MPA, MT2 cells, with 0.01 μM MPA
[19] = read-out: Mean EC50, 0.1 μM MPA, MT2 cells, with 0.1 μM MPA

| Compound | EC50 (xxLAI strain of HIV-1 [1]; [3]) [nM] | EC50 (xxLAI strain of HIV-1 [1]; [4]) [nM] | effect of addition of 0.25 μM MPA on anti-HIV activity in PBMCs (xxLAI strain of HIV-1 [1]; with 0.25 μM MPA) | effect of addition of 20 μM RBV on anti-HIV activity in PBMCs (xxLAI strain of HIV-1 [1]; with 20 μM RBV) | Fold difference in EC50, 0.1 μM MPA (xxLAI strain of HIV-1 [1]) [fold] | Fold difference in EC50, 0.25 μM MPA (xxLAI strain of HIV-1 [1]) [fold] | Fold difference in EC50, 5 μM RBV (xxLAI strain of HIV-1 [1]) [fold] | Fold difference in EC50, 10 μM RBV (xxLAI strain of HIV-1 [1]) [fold] | Fold difference in EC50, 20 μM RBV (xxLAI strain of HIV-1 [1]) [fold] | EC50 (xxLAI strain of HIV-1 [1]; [5]) [nM] | EC50 (xxLAI strain of HIV-1 [1]; [6]) [nM] | EC50 (xxLAI strain of HIV-1 [1]; [7]) [nM] | EC50 (xxLAI strain of HIV-1 [1]; [8]) [nM] | EC50 (xxLAI strain of HIV-1 [1]; [9]) [nM] | EC50 (xxLAI strain of HIV-1 [1]; [10]) [nM] | EC50 (xxLAI strain of HIV-1 [1]; [11]) [nM] | EC50 (xxLAI strain of HIV-1 [2]; [12]) [nM] | EC50 (xxLAI strain of HIV-1 [2]; [13]) [nM] | Fold difference in EC50, 0.1 μM MPA (xxLAI strain of HIV-1 [2]; MT2 cells) [fold] | Fold difference in EC50, 0.25 μM MPA (xxLAI strain of HIV-1 [2]; MT2 cells) [fold] | also measured |
| --- | --- | --- | --- | --- | --- | --- | --- | --- | --- | --- | --- | --- | --- | --- | --- | --- | --- | --- | --- | --- | --- |
| Nc1nc(NC2CC2)c2ncn([C@H]3C=C[C@@H](CO)C3)c2n1 [Abacavir] | 1200 | 540 | completely inhibited HIV replication | completely inhibited HIV replication | 3.2 | >50 | 4.9 | 18 | >18 | 1100 | 380 | < 0.5 | 200 | 110 | 30 | < 30 | 2400 | 4700 | 1 | 1.7 | fold difference in the apparent EC50 on addition of RBV (xxLAI strain of HIV-1 [2]; MT2 cells, addition of RBV): less than 2 fold; Fold difference in EC50, 5 μM RBV (xxLAI strain of HIV-1 [2]; MT2 cells): 0.68 fold; Fold difference in EC50, 10 μM RBV (xxLAI strain of HIV-1 [2]; MT2 cells): 0.73 fold; EC50 (xxLAI strain of HIV-1 [2]; [14]): 1400 nM; EC50 (xxLAI strain of HIV-1 [2]; [15]): 6900 nM; EC50 (xxLAI strain of HIV-1 [2]; [16]): 6400 nM; EC50 (xxLAI strain of HIV-1 [2]; [17]): 5700 nM |
| Cc1cn([C@H]2C[C@H](N=[N+]=[N-])[C@@H](CO)O2)c(=O)[nH]c1=O [AZT, 3′-azido-3′-deoxy-thymidine] | 3.1 | 3 | little effect | little effect | 1.5 | 1.8 | 1.2 | 1.4 | 1.4 | 2.6 | 2.1 | 1.7 | 3.5 | 2.6 | 2.2 | 2.1 | 420 | 1700 | 0.5 | 0.44 | fold increase in the apparent EC50 (xxLAI strain of HIV-1 [2]; MT2 cells, addition of 0.25 μM MPA): 2.3 fold; Fold difference in EC50, 1 μM RBV (xxLAI strain of HIV-1 [2]; MT2 cells, control vs with 1 μM RBV): 0.59 fold; Fold difference in EC50, 5 μM RBV (xxLAI strain of HIV-1 [2]; MT2 cells): 0.37 fold; Fold difference in EC50, 10 μM RBV (xxLAI strain of HIV-1 [2]; MT2 cells): 0.29 fold; Fold difference in EC50, 20 μM RBV (xxLAI strain of HIV-1 [2]; MT2 cells, control vs with 20 μM RBV (fold decrease)): <0.17 fold; EC50 (xxLAI strain of HIV-1 [2]; [18]): 300 nM; EC50 (xxLAI strain of HIV-1 [2]; [19]): 800 nM; EC50 (xxLAI strain of HIV-1 [2]; [14]): 950 nM; EC50 (xxLAI strain of HIV-1 [2]; read-out: Mean EC50, 1 μM RBV, MT2 cells, with 1 μM RBV): 2900 nM; EC50 (xxLAI strain of HIV-1 [2]; [15]): 4600 nM; EC50 (xxLAI strain of HIV-1 [2]; [16]): 5900 nM; EC50 (xxLAI strain of HIV-1 [2]; [17]): > 10000 nM |
| Nc1nc(=O)n([C@@H]2CS[C@H](CO)O2)cc1F [FTC] |  |  | little effect |  | 1.2 | 1.8 |  |  |  | 8 | 9.3 |  |  |  |  |  |  |  | 1 |  | EC50 (xxLAI strain of HIV-1 [1]; PMBCs, no MPA, read-out: Mean EC50, Control): 11 nM; EC50 (xxLAI strain of HIV-1 [1]; PMBCs, with 0.25 μM MPA, read-out: Mean EC50, 0.25 μM MPA): 6 nM; EC50 (xxLAI strain of HIV-1 [2]; MT2 cells, no MPA, read-out: Mean EC50, Control): 600 nM; EC50 (xxLAI strain of HIV-1 [2]; MT2 cells, with 0.25 μM MPA, read-out: Mean EC50, 0.25 μM MPA): 400 nM; EC50 (xxLAI strain of HIV-1 [2]; [18]): 620 nM; EC50 (xxLAI strain of HIV-1 [2]; [19]): 620 nM |
